Data reported in patent US10646489B2, “Compositions and methods for increasing energy metabolism” (NuSirt Sciences, Inc., priority 2012, dated 2020).

Key:
diet-induced obese mouse [1] = assay: Fasting blood glucose, insulin and HOMAIR in the diet-induced obese mouse; type: in vivo; conditions: 6 week treatment
Description: The interactive effects of icariin, a flavanol with specific PDE5 inhibitory properties, on glycemia and insulin sensitivity were assessed in the diet-induced obese mouse, which can be used as a murine model of type 2 diabetes. Male C57/BL6 mice were placed on standard low-fat chow (control; 10% energy from fat) or high fat (60% energy from fat, Research Diets # D12492, Research Diets, Inc, New Brunswick, N.J.) at six weeks of age to induce insulin resistance. […] The animals were then randomized to the following diets for an additional six weeks, with 10 animals per group: Low fat diet (LFD) control; High fat diet (HFD) control; HFD+leucine (24 g/kg diet, a two-fold increase over control levels)1 HFD+leucine (24 g/kg diet)+icariin (25 mg/kg diet). […] Mice were fasted overnight (˜16 hours) prior to measurement of fasting blood glucose, insulin and glucose tolerance. Glucose tolerance was determined following measurement of fasting glucose via intraperitoneal administration of glucose (1.2 g/kg body weight) followed by blood glucose measurement at 15, 30, 60, 90 and 120 minutes. Post-prandial glucose was measured within one hour of cessation of eating. Insulin tolerance was measured via an insulin tolerance test (ITT). Food was removed 4-6 hours prior to ITT, and baseline blood glucose measured. The mice were then injected intraperitoneally with insulin (1.2 U/kg body weight) and blood glucose was measured 15, 30, 60, 90 and 120 minutes following insulin injection. The homeostasis model assessment of insulin resistance (HOMAIR) was used as a screening index of changes in insulin sensitivity. HOMAIR is calculated via standard formula from fasting plasma insulin and glucose as follows: HOMAIR=[Insulin (uU/mL)×glucose (mM)]/22.5. The plasma glucose and insulin concentrations were measured using the Glucose Assay Kit from Biovision (Milpitas, Calif.) and the Insulin kit from Millipore (Billerica, Mass.), respectively. CRP levels in plasma were determined by ELISA (CRP: Life Diagnostics, West Chester, Pa.).

C2C12 myotubes = assay: Mitochondrial biogenesis measured as mitochondrial mass in C2C12 myotubes; type: cell-based; conditions: C2C12 cells treated with leucine alone; p<0.05
Description: The output of the pathways can be measured using one or more methods, disclosed herein and/or known in the art. […] Mitochondrial biogenesis can be measured using a mitochondrial probe by using fluorescence. AMPK activity can be determined by measuring AMPK phosphorylation via an ELISA assay or by Western blot. Sirt1 activity can be determined by measuring deacetylation of a substrate, which can be detected using a fluorophore. […] Treatment with 0.5 mM leucine corresponds to a circulating level of the same molarity achieved by administering about 1,125 mg of dietary leucine to a human subject. Treatment with 0.25 mM leucine corresponds to a circulating level of the same molarity achieved by administering about 300 mg of dietary leucine to a human subject.

diet-induced obese mouse [2] = assay: Post-prandial glucose, insulin and HOMAIR in the diet-induced obese mouse; type: in vivo; conditions: 7 days of treatment, leucine 24 g/kg diet, icariin 25 mg/kg diet
Description: The interactive effects of icariin, a flavanol with specific PDE5 inhibitory properties, on glycemia and insulin sensitivity were assessed in the diet-induced obese mouse, which can be used as a murine model of type 2 diabetes. Male C57/BL6 mice were placed on standard low-fat chow (control; 10% energy from fat) or high fat (60% energy from fat, Research Diets # D12492, Research Diets, Inc, New Brunswick, N.J.) at six weeks of age to induce insulin resistance. […], with 10 animals per group: Low fat diet (LFD) control; High fat diet (HFD) control; HFD+leucine (24 g/kg diet, a two-fold increase over control levels)1 HFD+leucine (24 g/kg diet)+icariin (25 mg/kg diet). […] Mice were fasted overnight (˜16 hours) prior to measurement of fasting blood glucose, insulin and glucose tolerance. Glucose tolerance was determined following measurement of fasting glucose via intraperitoneal administration of glucose (1.2 g/kg body weight) followed by blood glucose measurement at 15, 30, 60, 90 and 120 minutes. Post-prandial glucose was measured within one hour of cessation of eating. Insulin tolerance was measured via an insulin tolerance test (ITT). Food was removed 4-6 hours prior to ITT, and baseline blood glucose measured. The mice were then injected intraperitoneally with insulin (1.2 U/kg body weight) and blood glucose was measured 15, 30, 60, 90 and 120 minutes following insulin injection. The homeostasis model assessment of insulin resistance (HOMAIR) was used as a screening index of changes in insulin sensitivity. HOMAIR is calculated via standard formula from fasting plasma insulin and glucose as follows: HOMAIR=[Insulin (uU/mL)×glucose (mM)]/22.5. The plasma glucose and insulin concentrations were measured using the Glucose Assay Kit from Biovision (Milpitas, Calif.) and the Insulin kit from Millipore (Billerica, Mass.), respectively. CRP levels in plasma were determined by ELISA (CRP: Life Diagnostics, West Chester, Pa.).

3T3-L1 adipocytes = assay: Glucose utilization (extracellular acidification response to glucose injection) in 3T3-L1 adipocytes / adipocytes; type: cell-based; conditions: 3T3-L1 cells; leucine alone; p<0.05
Description: Glucose utilization was measured as extracellular acidification response to glucose injection. *p=0.05. […] Treatment with 0.5 mM leucine corresponds to a circulating level of the same molarity achieved by administering about 1,125 mg of dietary leucine to a human subject. Treatment with 0.25 mM leucine corresponds to a circulating level of the same molarity achieved by administering about 300 mg of dietary leucine to a human subject.

diet-induced obese mouse [3] = assay: Liver mass in the diet-induced obese mouse; type: in vivo; conditions: 6 week treatment
Description: The interactive effects of icariin, a flavanol with specific PDE5 inhibitory properties, on glycemia and insulin sensitivity were assessed in the diet-induced obese mouse, which can be used as a murine model of type 2 diabetes. Male C57/BL6 mice were placed on standard low-fat chow (control; 10% energy from fat) or high fat (60% energy from fat, Research Diets # D12492, Research Diets, Inc, New Brunswick, N.J.) at six weeks of age to induce insulin resistance. […] The animals were then randomized to the following diets for an additional six weeks, with 10 animals per group: Low fat diet (LFD) control; High fat diet (HFD) control; HFD+leucine (24 g/kg diet, a two-fold increase over control levels)1 HFD+leucine (24 g/kg diet)+icariin (25 mg/kg diet). […] A chronic high fat diet is associated with other deleterious consequences. For example, a chronic high fat diet can increase liver mass, likely resulting from fatty accumulation in the liver. Chronic high fat feeding is also associated with chronic inflammation, which can contribute to a number of diseases. To determine the effects of leucine or leucine+icariin administration on additional consequences of high fat feeding, liver mass and C-reactive protein (a biomarker of inflammation) were assessed in all experimental groups at the end of the 6 week study. […] HFD, FIG. 26). […]

leucine
reduction in HOMAIR vs. untreated HFD mice (diet-induced obese mouse [1]): ~30%
reduction in circulating insulin during fasting vs. untreated HFD mice (diet-induced obese mouse [1]): ~25%
reduction in fasting glucose vs. untreated HFD mice (diet-induced obese mouse [1]): ~20%
mitochondrial biomass (C2C12 myotubes): 22.05+/−0.4 AFU/μg protein
reduction in post-prandial glucose vs. untreated HFD mice (diet-induced obese mouse [2]): no independent effect
glucose utilization, agent alone (3T3-L1 adipocytes): 48.6%
reduction in liver mass vs. untreated HFD mice (diet-induced obese mouse [3]): ~10%
